Assay results from US9701670B2, “Pyrazolyl-ureas as kinase inhibitors” (RESPIVERT LIMITED, priority 2013, dated 2017).

How the values were obtained:
[1] = target: T1, p38 MAPKα isoform (MAPK14) (Homo sapiens (Human), UniProt Q16539); assay: p38 MAPKα enzyme inhibition (FRET, Z-LYTE), Method 2; type: biochemical; conditions: Method 2, different laboratory (Table 4a2)
GSK 3α [2] = target: T2, GSK 3α (Homo sapiens (Human), UniProt P49840); assay: GSK 3α enzyme inhibition (FRET, Z-LYTE), Method 2; type: biochemical; conditions: Method 2, different laboratory (Table 4a2); read-out: IC50 Values for Enzyme Inhibition GSK3α
Experimental: (§1) The enzyme inhibitory activities of compounds disclosed herein are determined by FRET using synthetic peptides labelled with both donor and acceptor fluorophores (Z-LYTE, Invitrogen Ltd., Paisley, UK).
(§2) The inhibitory activities of compounds of the invention against the GSK 3α enzyme isoform (Invitrogen), are evaluated by determining the level of activation/phosphorylation of the target peptide. The GSK3-α protein (500 ng/mL, 2.5 μL) is mixed with the test compound (2.5 μL at either 4 μg/mL, 0.4 μg/mL, 0.04 μg/mL, or 0.004 μg/mL) for 2 hr at RT. The FRET peptide (8 μM, 2.5 μL), which is a phosphorylation target for GSK3α, and ATP (40 μM, 2.5 μL) are then added to the enzyme/compound mixture and the resulting mixture incubated for 1 hr. Development reagent (protease, 5 μL) is added for 1 hr prior to detection in a fluorescence microplate reader (Varioskan® Flash, ThermoFisher Scientific).
(§3) In all cases, the site-specific protease cleaves non-phosphorylated peptide only and eliminates the FRET signal. Phosphorylation levels of each reaction are calculated using the ratio of coumarin emission (donor) over fluorescein emission (acceptor), for which high ratios indicate high phosphorylation and low ratios indicate low phosphorylation levels.

[3] = test system: β-catenin in d-U937 cells; assay: (m) Accumulation of β catenin in d-U937 cells; type: cell-based, human
Outline: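 PMA-differentiated U937 macrophage-type cells (100 ng/mL, 48–72 hr) were exposed to test compound or vehicle for 18 hr, then fixed. β-catenin was measured by cell ELISA (HRP/TMB, OD450-655) and normalised to crystal violet OD595. Signals below 15% of the standard control were designated "-ve".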

[4] = Hepatic microsomal stability; type: in vitro ADME, human
Experimental: (§4) • Microsomal stability assays were performed with incubations of test compounds at 0.1 μM (n=2, final DMSO concentration 0.25%), and carried out using pooled human, dog and rat hepatic microsomes from Xenotech (Lots 1210153, 0810143 and 1110042, respectively) at 0.25 mg protein/mL in the presence of co-factor, NADPH. The incubations were performed at 37° C. with 100 μL aliquots taken from the incubation, at 0, 2, 5, 10 and 20 minutes and reactions terminated by addition of 100 μL of acetonitrile containing carbamazepine as analytical internal standard. […] Half-life values were calculated from the relationship T1/2(min)=−0.693/λ • where λ was the slope of the Ln concentration vs time curve. • The in vitro intrinsic clearance, CIint (mL/min/kg), was calculated and scaled to hepatic extraction ratios using the following scaling parameters and formulae.
(§5) Formulae CIint(tissue clearance) mL/min/kg=[0.693/t½(min)]×[1/microsomal protein concentration mg/mL]×[mg microsomes/g liver]×[g liver/kg body weight] […] The incubations were performed at 37° C. with 100 μL samples taken from the incubation, at 0, 10, 20, 45 and 90 minutes, and reactions terminated by addition of 100 μL of acetonitrile containing carbamazepine as analytical internal standard. […] Half-life values were calculated from the relationship T1/2(min)=−0.693/λ • where λ was the slope of the Ln concentration vs time curve. • Standard compounds testosterone, midazolam and 4-methylumbelliferone are included in the assay design.

[5] = Hepatic microsomal stability; type: in vitro ADME; conditions: scaled from intrinsic clearance, mean of two experiments
Experimental: as §4, §5

[6] = Cryopreserved hepatocyte stability; type: in vitro ADME; conditions: scaled from intrinsic clearance, mean of two experiments
Experimental: as §5
CIint(Tissue Clearance) mL/min/kg=[0.693/t½(min)]×[1/hepatocyte concentration (million cells/mL)]×[million cells/g liver]×[g liver/kg body weight] CIint(Hepatic clearance) mL/min/kg=hepatic blood flow×CIint/(hepatic blood flow+CIint) Hepatic extraction ratio (Eh)=CIint(Hepatic clearance) mL/min/kg/hepatic blood flow (mL/min/kg)

[7] = target: T1, p38 MAPKα isoform (MAPK14); assay: p38 MAPKα enzyme inhibition (FRET, Z-LYTE), Method 1; type: biochemical; conditions: Method 1 (Table 4a1)
GSK 3α [8] = target: T2, GSK 3α; assay: GSK 3α enzyme inhibition (FRET, Z-LYTE), Method 1; type: biochemical; conditions: Method 1 (Table 4a1); read-out: IC50 Values for Enzyme Inhibition GSK3α
Experimental: as §1, §2, §3

[9] = test system: Differentiated U937 cells; assay: (l) Cell viability: MTT assay; type: cell-based, human; conditions: 1 μg/mL
Outline: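 Differentiated U937 cells were exposed to compound at 1 or 10 μg/mL either 4 h in 5% FCS RPMI1640 or 24 h in 10% FCS RPMI1640, then given MTT for 1 h, DMSO-solubilised and read at 550 nm. Percent viability loss versus 0.5% DMSO vehicle; apparent gains appear negative.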

Balb/c mice = assay: (A) LPS-induced neutrophil accumulation in mice; type: in vivo, mouse; conditions: mice; for Neutrophil numbers in BAL: N = 8
Experimental: […] At T=0, mice are placed into an exposure chamber and exposed to LPS (7.0 mL, 0.5 mg/mL solution in PBS) for 30 min). After a further 8 hr the animals are anesthetized, their tracheas cannulated and BALF extracted by infusing and then withdrawing from their lungs 1.0 mL of PBS via the tracheal catheter. Total and differential white cell counts in the BALF samples are measured using a Neubaur haemocytometer. Cytospin smears of the BALF samples are prepared by centrifugation at 200 rpm for 5 min at RT and stained using a DiffQuik stain system (Dade Behring). Cells are counted using oil immersion microscopy. Data for neutrophil numbers in BAL are shown as mean±S.E.M. (standard error of the mean). The percentage inhibition of neutrophil accumulation is calculated for each treatment relative to vehicle treatment.

mice = assay: Mouse cigarette smoke model (macrophage and neutrophil accumulation in BALF); type: in vivo; conditions: tobacco smoke, mice; for Cell numbers in BAL Macrophage / Cell numbers in BAL Neutrophil: mean ± SEM, N = 6
Description: The result of treatment with compound Example (8) on macrophage and neutrophil accumulation in BALF in the mouse cigarette smoke model was investigated (Table 5).

T1 sequence (Q16539 whole entry, canonical isoform): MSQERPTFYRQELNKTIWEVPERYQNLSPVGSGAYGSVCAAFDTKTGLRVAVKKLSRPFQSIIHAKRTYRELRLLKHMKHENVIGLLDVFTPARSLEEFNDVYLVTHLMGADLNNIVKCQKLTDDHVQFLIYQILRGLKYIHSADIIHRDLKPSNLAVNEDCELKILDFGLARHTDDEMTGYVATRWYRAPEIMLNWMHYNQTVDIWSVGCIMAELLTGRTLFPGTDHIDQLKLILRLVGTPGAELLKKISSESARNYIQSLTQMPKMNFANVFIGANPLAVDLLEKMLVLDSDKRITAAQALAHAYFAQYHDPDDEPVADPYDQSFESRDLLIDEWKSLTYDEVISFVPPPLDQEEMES
T2 sequence (P49840 whole entry): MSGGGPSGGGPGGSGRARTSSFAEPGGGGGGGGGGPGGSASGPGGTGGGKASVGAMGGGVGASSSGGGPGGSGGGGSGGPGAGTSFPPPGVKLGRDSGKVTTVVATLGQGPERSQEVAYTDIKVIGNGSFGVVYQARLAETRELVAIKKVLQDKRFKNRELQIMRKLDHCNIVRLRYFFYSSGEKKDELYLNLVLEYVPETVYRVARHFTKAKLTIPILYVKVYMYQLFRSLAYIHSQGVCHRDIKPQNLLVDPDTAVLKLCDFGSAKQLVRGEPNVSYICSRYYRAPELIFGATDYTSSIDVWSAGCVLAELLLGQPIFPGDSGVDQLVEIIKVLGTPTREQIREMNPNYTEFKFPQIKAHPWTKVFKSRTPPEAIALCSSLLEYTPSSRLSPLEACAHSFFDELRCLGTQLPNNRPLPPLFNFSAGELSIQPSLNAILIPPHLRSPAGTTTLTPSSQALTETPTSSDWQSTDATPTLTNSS

For `C#Cc1cc(Nc2nccc(Oc3ccc(NC(=O)Nc4cc(C(C)(C)C)nn4-c4ccc(N(C)C)cc4)c4ccccc34)n2)cc(C(=O)NCCN2CCOCC2)c1` [Example 80, 3-((4-((4-(3-(3-(tert-Butyl)-1-(4-(dimethylamino)phenyl)-1H-pyrazol-5-yl)ureido)naphthalen-1-yl)oxy)pyrimidin-2-yl)amino)-5-ethynyl-N-(2-morpholinoethyl)-benzamide], the IC50 [1] was 437 nM, the IC50 (GSK 3α [2]) was 12600 nM and the “% β-catenin induction” value ([3]; 1 μg/mL test compound) was 14%. The “% β-catenin induction” value ([3]; 5 μg/mL test compound) was 8%, the hepatic clearance ([4]; conclusion from Tables 9a and 9b (hepatic microsomes and hepatocytes)) was “high hepatic clearance” and the “Mean hepatic extraction ratio (Eh)” value ([4]; human hepatic microsomes, scaled from intrinsic clearance, mean of two experiments) was 0.93. For the same compound, the “Mean hepatic extraction ratio (Eh)” value ([5]; dog hepatic microsomes) was 0.91, the “Mean hepatic extraction ratio (Eh)” value ([5]; rat hepatic microsomes) was 0.77 and the “Mean hepatic extraction ratio (Eh)” value ([6]; dog hepatocytes) was 0.73. For the same compound, the “Mean hepatic extraction ratio (Eh)” value ([6]; human hepatocytes) was less than 0.61 and the “Mean hepatic extraction ratio (Eh)” value ([6]; rat hepatocytes) was less than 0.44.
In the case of `COc1cc(Nc2nccc(Oc3ccc(NC(=O)Nc4cc(C(C)C)nn4-c4ccc(C)cc4)c4ccccc34)n2)cc(C(=O)NCCO)c1` [Example 63, N-(2-hydroxyethyl)-3-((4-((4-(3-(3-isopropyl-1-(p-tolyl)-1H-pyrazol-5-yl)ureido)naphthalen-1-yl)oxy)pyrimidin-2-yl)amino)-5-methoxybenzamide], the IC50 [7] is reported as 45 nM, the IC50 (GSK 3α [8]) is reported as 13000 nM and the “Cell viability at time point in d-U937 cells 4 h” value [9] is reported as “−ve (−ve and +ve indicate that the value is below and above respectively, the no significant effect threshold, defined as 30% inhibition at 1 μg/mL at the time point indicated.)”. For the same compound, the “Cell viability at time point in d-U937 cells 24 h” value [9] was “−ve (−ve and +ve indicate that the value is below and above respectively, the no significant effect threshold, defined as 30% inhibition at 1 μg/mL at the time point indicated.)”.
For `COc1cc(Nc2nccc(Oc3ccc(NC(=O)Nc4cc(C(C)C)nn4-c4ccc(C)cc4)c4ccccc34)n2)cc(C(=O)NCCN2CCOCC2)c1` [Example 8, 3-((4-((4-(3-(3-Isopropyl-1-(p-tolyl)-1H-pyrazol-5-yl)ureido)naphthalen-1-yl)oxy)pyrimidin-2-yl)amino)-5-methoxy-N-(2-morpholinoethyl)benzamide], the IC50 [7] was 2 nM, the IC50 [1] was 44 nM and the IC50 (GSK 3α [2]) was 13200 nM. The “Cell viability at time point in d-U937 cells 4 h” value [9] was “−ve (−ve and +ve indicate that the value is below and above respectively, the no significant effect threshold, defined as 30% inhibition at 1 μg/mL at the time point indicated.)”, the “Cell viability at time point in d-U937 cells 24 h” value [9] was “−ve (−ve and +ve indicate that the value is below and above respectively, the no significant effect threshold, defined as 30% inhibition at 1 μg/mL at the time point indicated.)” and the “% inhibition of neutrophil numbers in BAL” value (Balb/c mice; 0.05 mg/mL, pre-dose time 2 hr) was 40%. The “Neutrophil numbers in BAL” value (Balb/c mice; 0.05 mg/mL, pre-dose time 2 hr, mean +/− SEM) was 9.6 ± 2.0 ×10^5/mL, the “% inhibition of neutrophil numbers in BAL” value (Balb/c mice; 0.2 mg/mL, pre-dose time 2 hr) was 59% and the “Neutrophil numbers in BAL” value (Balb/c mice; 0.2 mg/mL, pre-dose time 2 hr, mean +/− SEM) was 6.6 ± 1.4 ×10^5/mL. The “% inhibition of neutrophil numbers in BAL” value (Balb/c mice; 0.2 mg/mL, pre-dose time 12 hr) was 43%, the “Neutrophil numbers in BAL” value (Balb/c mice; 0.2 mg/mL, pre-dose time 12 hr, mean +/− SEM) was 9.1 ± 1.7 ×10^5/mL and the “% inhibition of neutrophil numbers in BAL” value (Balb/c mice; 0.2 mg/mL, pre-dose time 18 h) was 9%. The “Neutrophil numbers in BAL” value (Balb/c mice; 0.2 mg/mL, pre-dose time 18 h, mean +/− SEM) was 14.6 ± 2.5 ×10^5/mL, the “% inhibition of neutrophil numbers in BAL” value (Balb/c mice; 1.0 mg/mL, pre-dose time 2 hr) was 77% and the “Neutrophil numbers in BAL” value (Balb/c mice; 1.0 mg/mL, pre-dose time 2 hr, mean +/− SEM) was 3.7 ± 0.61 ×10^5/mL. The “% inhibition of neutrophil numbers in BAL” value (Balb/c mice; test substance at 0.2 mg/mL, dosed 8 hr pre-LPS challenge) was 57%, the “Neutrophil numbers in BAL” value (Balb/c mice; test substance at 0.2 mg/mL, dosed 8 hr pre-LPS challenge, +/−SEM) was 6.1 ± 1.2 ×10^5/mL and the “% inhibition Macrophage in BAL” value (mice; 1.6 μg/mL) was 29%. The “% inhibition Neutrophil in BAL” value (mice; 1.6 μg/mL) was 28%, the “Cell numbers in BAL Macrophage” value (mice; 1.6 μg/mL) was 14.0 ± 0.50 ×10^4/mL and the “Cell numbers in BAL Neutrophil” value (mice; 1.6 μg/mL) was 13.6 ± 0.51 ×10^4/mL. The “% inhibition Macrophage in BAL” value (mice; 8 μg/mL) was 50%, the “% inhibition Neutrophil in BAL” value (mice; 8 μg/mL) was 49% and the “Cell numbers in BAL Macrophage” value (mice; 8 μg/mL) was 10.9 ± 0.42 ×10^4/mL. The “Cell numbers in BAL Neutrophil” value (mice; 8 μg/mL) was 10.2 ± 0.33 ×10^4/mL, the “% inhibition Macrophage in BAL” value (mice; 40 μg/mL) was 67% and the “% inhibition Neutrophil in BAL” value (mice; 40 μg/mL) was 61%. For the same compound, the “Cell numbers in BAL Macrophage” value (mice; 40 μg/mL) was 8.3 ± 0.38 ×10^4/mL, the “Cell numbers in BAL Neutrophil” value (mice; 40 μg/mL) was 8.2 ± 0.58 ×10^4/mL and the “% inhibition Macrophage in BAL” value (mice; 200 μg/mL) was 83%. The “% inhibition Neutrophil in BAL” value (mice; 200 μg/mL) was 77%, the “Cell numbers in BAL Macrophage” value (mice; 200 μg/mL) was 5.9 ± 0.31 ×10^4/mL and the “Cell numbers in BAL Neutrophil” value (mice; 200 μg/mL) was 5.6 ± 0.39 ×10^4/mL.
